Assay results as given in patent publication US7276337B2, “Compositions and methods for visual ribonuclease detection assays” (Integrated DNA Technologies, Inc., priority 2000, dated 2007).

Key:
[1] = target: T1, Ribonuclease A (Bos taurus, UniProt P61823); assay: Visual detection ribonuclease assay, cleavage of Substrate ODN by RNase A; format: biochemical, mammalian; set-up: key to Sensitivity of Substrate ODN to Ribonuclease A, relative signal intensity: +++ = maximum intensity; ++ = moderate intensity; + = faint but above background; − = negative (identical to background); details: Substrate 500 nM; for Sensitivity of Substrate ODN to Ribonuclease A, relative signal intensity: visual inspection, UV excitation, 37° C. 60 minutes
T1 sequence (P61823 27-150): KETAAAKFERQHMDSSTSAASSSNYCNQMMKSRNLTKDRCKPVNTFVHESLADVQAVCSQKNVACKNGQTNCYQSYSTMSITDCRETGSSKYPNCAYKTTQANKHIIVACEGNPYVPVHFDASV
Method: Nuclease assays were conducted using the methods of the invention. SEQ ID NO:2 and SEQ ID NO:30 oligonucleotides were individually mixed in 1× Assay Buffer at a concentration of 500 nM (50 pmoles ODN in 100 ul volume) in thin-walled, UV transparent microtubes. RNase A (1 ul, diluted to 0;1 ug/ul) was added to the respective Assay Mixes. […] Assays were set up directly in microtubes as follows:
Assay Mixes were incubated at room temperature for 10 minutes. Assays were visually examined for fluorescence emission directly in the assay tubes without further manipulation. Tubes were suspended above an ultraviolet light source, visually inspected, and photographed using a digital camera. […] The “positive” and “control” reactions appeared markedly different and were easily distinguished. […] The “positive” and “control” reactions were not markedly different to visual inspection.
(§1) Nuclease assays were conducted using the method of the invention with both visual and fluorometric detection methods. Substrates were individually mixed in 1× Assay Buffer at a concentration of 50 nM (50 pmoles oligonucleotide in 1 ml volume) for fluorometric detection or at a concentration of 500 nM (50 pmoles of oligonucleotide in 100 ul volume) for visual detection. Test nucleases were added to respective Assay Mixes beginning at 1 ul stock reagent and proceeding with a 1:10 serial dilution until undetectable. Reaction mixes were incubated at 37° C. for 60 minutes. Fluorometric detection was performed as outlined in Example 2. Visual detection was performed as outlined in Example 1.
(§2) Table 6: Sensitivity of different Substrate ODNs to Ribonuclease A. A series of Substrate ODNs were synthesized and tested for sensitivity to RNase A degradation. Stock enzyme was serial diluted to achieve final concentrations of 1 ng/ml, 100 pg/ml, and 10 pg/ml as indicated. Reactions were examined for fluorescence emission by visual inspection using an ultraviolet (UV) light source for excitation. Results were scored as +++, ++, +, or − based on relative signal intensity.
(§3) It is commonly accepted that fluorometry provides for high sensitivity. To be useful, the visual method must also offer high sensitivity. Assays were conducted using the method of the invention with visual detection. Substrate SEQ ID NO:30 was mixed in 1× Assay Buffer at a concentration of 500 nM (50 pmoles ODN in 100 ul volume) in thin-walled, UV transparent tubes. […] Dilutions of stock RNase A, RNase 1, and RNase T1 were made in water. Undiluted and diluted nuclease (1 ul) was added to respective 100 ul Assay Mixes resulting in final dilution factors of 10^−2, 10^−3, 10^−4, 10^−5, 10^−6, and 10^−7. Assays were incubated at room temperature for 10 minutes and visually examined for fluorescence emission with UV excitation. […] The experiment took about 30 minutes to perform, including 15 minutes to set-up serial dilutions, 10 minutes incubation, and 5 minutes to visualize and photograph. Thus the method of the invention allows for a rapid, simple, and convenient visual assay for the presence of ribonuclease activity.

[2] = target: T2, RNase A (Bos taurus, UniProt P61823); assay: Fluorometric detection nuclease assay, RNase A; format: biochemical, mammalian; details: RNase A 0.33 ug/ml; Substrate 50 nM; 37° C. 1 hour; 490 nm excitation
T2 sequence (P61823 27-150): T1 sequence (P61823 27-150)
Method: (§4) Nuclease assays were conducted using the method of the invention. SEQ ID NO:2 and SEQ ID NO:3 oligonucleotides were individually mixed in 1× Assay Buffer at a concentration of 50 nM (150 pmoles oligonucleotide in 3 mls volume). […] Assays were set up directly in cuvettes as follows:
(§5) Assay Mixes were incubated at 37° C. for 1 hour. Fluorescence emission spectra were measured using a PTI fluorometer with 490 nm excitation. Substrate SEQ ID NO:2 (having chimeric RNA-DNA composition) reacted with both DNase I (undesired) and RNase A (desired).
Nuclease assays were conducted using the method of the invention. The Substrate (SEQ ID NO:30) was mixed in 1× Assay Buffer at a concentration of 50 nM (150 pmoles oligonucleotide in 3 mls volume). Test nucleases were added to respective Assay Mixes, including 1 ul of RNase A (1 ug), 1 ul of RNase 1 (100 units), or 1 ul of RNase T1 (1000 units). […] Assays were set up directly in cuvettes as follows:
Assay Mixes were incubated at 37° C. for 1 hour. Assays were transferred to cuvettes and fluorescence emission at 520 nm was measured using a PTI fluorometer with 490 nm excitation. Substrate SEQ ID NO:30, a preferred Substrate of the invention, reacted with (i.e., detected) all three RNase enzymes, verifying that Substrate compositions of the invention are sensitive to a variety of RNase enzymes.
Substrate SEQ ID NO:30 was mixed in 1× Assay Buffer at a concentration of 50 nM (150 pmoles oligonucleotide in 3 mls volume). RNase A was added at final concentrations of 10 ng/ml, 2 ng/ml, 1 ng/ml, and 0.4 ng/ml. […] Assay mixes were incubated at 37° C. in a cuvette directly in a PTI fluorometer. Fluorescence emission at 520 nm with 490 nm excitation was measured over time. At high nuclease concentrations, the reaction goes rapidly to completion. At lower nuclease concentrations, the reaction rate decreases but with longer incubation times an easily detectable signal is generated. Substrate concentration is fixed and input enzyme (i.e., the test sample) varies. Since the background is stable (monitored in the control reaction), use of extended incubation periods will increase the sensitivity of the assay.
Assays were conducted using the method of the invention with fluorometric detection. Substrate SEQ ID NO:30 was mixed in 1× Assay Buffer at a concentration of 50 nM (50 pmoles ODN in 1.0 ml volume) in RNase-free disposable cuvettes. […] Dilutions of stock RNase A, RNase 1, and RNase T1 were made in water. Undiluted and diluted nuclease (1 ul) was added to respective 1.0 ml Assay Mixes resulting in final dilution factors of 10^−3, 10^−4, 10^−5, 10^−6, 10^−7, 10^−8, and 10^−9. Assays were incubated at 37° C. for 1 hour and examined for fluorescence emission at 520 nm using 490 nm excitation in a PTI fluorometer. Final enzyme concentration reported notes the lowest concentration tested that was reproducibly positive with a signal:noise ratio of at least 2:1.

[3] = target: DNase I (Bos taurus, UniProt P00639); assay: Fluorometric detection nuclease assay, DNase I (nuclease specificity); format: biochemical; details: DNase I 2 units/ml; Substrate 50 nM; 37° C. 1 hour; 490 nm excitation
Method: as §4, §5

[4] = target: T3, Ribonuclease T1 (Aspergillus oryzae, UniProt P00651); assay: Visual detection ribonuclease assay, cleavage of Substrate ODN by RNase T1; format: biochemical; set-up: key to Sensitivity of Substrate ODN to Ribonuclease T1, relative signal intensity: +++ = maximum intensity; ++ = moderate intensity; + = faint but above background; − = negative (identical to background); details: visual inspection, UV excitation, Substrate 500 nM, 37° C. 60 minutes
T3 sequence (P00651 27-130): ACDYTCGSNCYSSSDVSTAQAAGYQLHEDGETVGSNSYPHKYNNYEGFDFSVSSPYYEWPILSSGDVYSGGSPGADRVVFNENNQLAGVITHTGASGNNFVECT
Method: as §1
as §2, with “Table 7:” for “Table 6:”, “Ribonuclease T1.” for “Ribonuclease A.”, “RNase T1” for “RNase A”, “of 0.001 units/ml, 0.0001 units/ml,” for “of 1 ng/ml, 100 pg/ml,”, “and 0.00001 units/ml” for “and 10 pg/ml”
as §3

DNase I, sequence (P00639 23-282): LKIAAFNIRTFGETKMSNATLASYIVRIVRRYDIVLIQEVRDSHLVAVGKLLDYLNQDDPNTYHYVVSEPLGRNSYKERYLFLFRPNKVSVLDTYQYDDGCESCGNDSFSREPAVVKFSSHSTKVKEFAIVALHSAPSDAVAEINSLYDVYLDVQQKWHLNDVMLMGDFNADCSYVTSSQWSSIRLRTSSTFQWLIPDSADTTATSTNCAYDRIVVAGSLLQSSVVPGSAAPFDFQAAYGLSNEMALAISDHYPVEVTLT

Substance	Sensitivity of Substrate ODN to Ribonuclease A, relative signal intensity ([1]; RNase A 10 pg/ml)	Sensitivity of Substrate ODN to Ribonuclease A, relative signal intensity ([1]; RNase A 100 pg/ml)	Sensitivity of Substrate ODN to Ribonuclease A, relative signal intensity ([1]; RNase A 1 ng/ml)	Reactivity with RNase A (fluorometer) [2]	Reactivity with DNase I (fluorescence emission spectra) [3]	Sensitivity of Substrate ODN to Ribonuclease T1, relative signal intensity ([4]; RNase T1 10^−3 units/ml)	Sensitivity of Substrate ODN to Ribonuclease T1, relative signal intensity ([4]; RNase T1 10^−4 units/ml)	Sensitivity of Substrate ODN to Ribonuclease T1, relative signal intensity ([4]; RNase T1 10^−5 units/ml)	Fluorescence emission by visual inspection in the presence of RNase ([1]; RNase A 1.0 ug/ml, room temperature 10 minutes, UV light source)	Fluorescence emission by visual inspection in the absence of RNase (control reaction) ([1]; no nuclease, room temperature 10 minutes, UV light source)
5′ Fluorescein-AAuAA-Dabcyl 3′ (NAAUAAN; 5' fluorescein and 3' Dabcyl labels, nucleotide chemistry not given here) [SEQ ID NO:3]	−	+	++	retained reactivity	did not react	−	−	−		
5′ Fluorescein-AuAA-Tamra 3′ (NAUAAN; 5' fluorescein and 3' TAMRA labels, nucleotide chemistry not given here) [SEQ ID NO:2, reference compound]				reacted	reacted				changed somewhat in color and slightly increased in intensity	emitted light
